Test results taken from US11360080B2, “AhR-ROR-γt complex as a biomarker and therapeutic target for autoimmune disease and IL-17A-associated disease” (NATIONAL HEALTH RESEARCH INSTITUTES, priority 2018, dated 2022).

System: GLK
Test: GLK shRNA knockdown in T cells of Lck-GLK Tg mice, flow cytometry of IL-17A-producing T cells
Assay type: cell-based, mouse
Conditions: anti-CD3 3 h, day 3 post-transfection
Method: (A) Hematoxylin and eosin-stained sections of indicated organs from mice. Arrows, infiltrating immune cells. Bar, 100 μm. (B) Levels of serum autoantibodies from mice were determined by ELISA assays. The levels are presented relative to the value from one of wild-type mice. (C) The serum levels of cytokines in mice were determined by ELISA assays. (D) The serum levels of autoantibodies in Lck-GLK and Lck-GLK/IL-17A KO mice were determined by ELISA assays. The levels are presented relative to the value from one of Lck-GLK mice. (E) IL-17A expression was attenuated by GLK shRNA. Murine primary splenic T cells were transfected with GFP-human GLK shRNA and a control GFP vector. The transfected T cells were stimulated with anti-mouse CD3 antibodies for 3 h and then determined by flow cytometry at day 3 post-transfection. […] WT, wild-type littermate controls; Lck-GLK, T-cell-specific GLK transgenic mice. Lck-GLK/IL-17A KO, Lck-GLK; IL-17A-deficient mice. ANA, anti-nuclear antibody; α-dsDNA, anti-dsDNA antibody; RF, rheumatoid factor. *, P value<0.05; **, P value<0.01 (two-tailed Student's t-test).
Human Jurkat T leukaemia cells (TIB-152) were cultured in RPMI-1640 medium (Invitrogen) containing 10% fetal calf serum plus penicillin (10 units per ml) and streptomycin ([…]). […]

For “GLK shRNA: human GLK shRNA (5′-GTGCCACTTAGAATGTTTGAAA-3, SEQ ID NO: 7) subcloned into pSUPER-GFP vector”, the “IL-17A overproduction in T cells from Lck-GLK Tg mice” value was “abolished”.
